{"source": "patent EP0501641A1", "about": "“L-2-oxothiazolidine-4-carboxylate and glutathion esters for the treatment of hepatic diseases” (CLINTEC NUTRITION COMPANY, priority 1991, dated 1992)", "experiment": "Example 3: post liver transplant supplementation with glutathione methyl ester tablets, plasma glutathione monitored", "type": "in vivo", "settings": "tablet t.i.d. containing 0.5 g, Normal Range 4.5", "text": "A person with primary biliary cirrhosis underwent liver transplant. In addition to routine post-surgery immuno-suppressive and nutritional therapies the patient received a glutathione-containing tablet t.i.d. containing 0.5 g glutathione methyl ester. The goal of the therapy was to normalize plasma and tissue glutathione status.\nPlasma glutathione concentration was monitored periodically; values for Week 1 and Week 12 are given below: […]"}
{"smiles": "COC(=O)CNC(=O)[C@H](CS)NC(=O)CC[C@H](N)C(=O)O", "note": "[glutathione methyl ester]", "values": [{"measurement": "Plasma Glutathione", "setting": "Week 1, person after liver transplant", "result": 1.2, "unit": "µM"}, {"measurement": "Plasma Glutathione", "setting": "Week 12", "result": 3.9, "unit": "µM"}]}
